Patent publication US20230263826A1, “Compositions and Methods for Treatment and Prevention of Type 1 Diabetes” (The UAB Research Foundation, priority 2021, published 2023)

Columns and labels:
female NOD mice [1] = assay: i.p. glucose tolerance test (GTT) in FKGK18-treated NOD mice; format: in vivo, mouse; details: for glucose tolerance vs PBS-T: glucose 2 g/kg i.p.
Method: (§1) FIGS. 1A-1M show the effects of temporal FKGK18 regimen on T1D incidence and islet phenotype, wherein female NOD mice were administered FKGK18 (20 mg/kg, 3 × weekly) or vehicle (PBS-T) starting at 4 or 8 weeks of age. FIGS. 1A and 1B show diabetes incidence; blood glucose was monitored weekly in the 4-week (FIG. 1A; n = 17 and 15 for PBS-T and FKGK18 groups, respectively) and 8-week (FIG. 1B; n = 15 each in the PBS-T and FKGK18 groups) regimen groups for up to 30 weeks. Two consecutive readings of ≥ 275 mg/dL were recorded as onset of T1D (^†P < 0.05). FIGS. 1C-1F show glucose tolerance test (GTT) results, wherein overnight fasted mice were administered glucose (2 g/kg, i.p.), glucose levels in blood from tail vein were monitored over a 2-hour period, and AUC were generated. FIGS. 1C and 1D show four-week group at 14 weeks of age; n = 5 each in the PBS-T and FKGK18 groups. FIGS. 1E and 1F show eight-week group at 25 weeks of age; n = 7 and 5 for PBS-T and FKGK18 groups, respectively. FIGS. 1G-1I show phenotype parameters in the 8-week regimen group. […] FIGS. 1H and 1I show β Cell mass (PBS-T, n = 15; FKGK18, n = 14) (FIG. 1H) and circulating insulin (n = 15 in each group) (FIG. 1I) were determined at sacrifice (PBS-T, 14-30 weeks of age; FKGK18, 16-36 weeks of age). FIGS. 1J and 1K show islet infiltration; paraffin sections (10 µm) of pancreas were prepared and stained with H&E. Percent infiltration for each islet was calculated as the value of noninfiltrated area subtracted from total islet area (% infiltrate = 100 × [(total area - noninfiltrated area)/(total area)]) using ImageJ software. […]
FIGS. 2A-2E show the effects of FKGK18-withdrawal regimen on T1D incidence and glucose tolerance, wherein female NOD mice were administered FKGK18 (20 mg/kg, 3 × weekly, n = 18) or vehicle (PBS-T, n = 17) starting at 10 days of age and until 14 weeks of age. […] FIGS. 2B and 2D show glucose tolerance test (GTT) results, assessed at 14 (FIG. 2B) and 25 (FIG. 2D) weeks of age (data are presented as mean ± SEM), as described in FIG. 1. […]

female NOD mice [2] = assay: Islet infiltration and islet immune cell phenotype (H&E, CD4+ T cell and B220 staining of pancreas sections); format: in vivo, mouse; details: 8-week regimen group
Method: as §1, with “software. (PBS-T, n = 14 and 166 islets; FKGK18, n = 15 and 260 islets).” for “software.”
Blood glucose levels were measured weekly via tail vein blood draw (2 µL) with Breeze 2 Blood Glucose Monitoring System (Bayer HealthCare). Diabetes incidence was based on 2 consecutive blood glucose readings ≥ 275 mg/dL, at which time the mouse was euthanized. […] Pancreas section and islet images were captured on an Olympus IX81 microscope using cellSens Dimension software and analyzed using ImageJ software (NIH).

## O=C(CCCCc1ccc2ccccc2c1)C(F)(F)F [FKGK18]
Female NOD mice [1]; FKGK18 from 10 days until 14 weeks of age, GTT at 14 and 25 weeks of age
  glucose tolerance, PBS-T vs FKGK18-withdrawn group: indistinguishable
Female NOD mice [1]; FKGK18 started at 4 weeks of age, GTT at 14 weeks of age
  glucose tolerance vs PBS-T: No differences
Female NOD mice [1]; FKGK18 started at 8 weeks of age, GTT at 25 weeks of age
  glucose tolerance vs PBS-T: No differences
Female NOD mice [2]
  pancreatic islet abundance of B cells relative to PBS-T: significantly reduced
  pancreatic islet abundance of CD4+ T cells relative to PBS-T: significantly reduced
Female NOD mice [2]; H&E pancreas sections
  islet infiltration vs PBS-T: reduced
